# Laboratory results as given in PubChem BioAssay AID2060892 (Molecular Pharmacology Branch, DTP, NCI, 2025).
# “And” between values parts separate entries of the source, which are not always exact repeats. Identical values can stand only once.
# System: HOP-62 complex spheroids with HUVEC/MSC, viability
# Experiment: Anticancer human tumor HOP-62 cell line growth inhibition [RAS];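 note: spheroids exposed to agents for seven days before readout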;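 for viability, T/C: 100% = DMSO vehicle control viability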
# Conditions: for viability, T/C: stronger effect = lower value
# Summary of the method: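 Agents were tested in combination matrices in half-log decrements from a top concentration at or near clinical Cmax (10 microM if undetermined). Targets were multi-cell spheroids of tumour lines plus HUVEC and MSC stromal cells.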
structure (smiles),measurement,setting,value
C=CC(=O)N1CCN(c2nc(OCC3CCCN3C)nc3c(F)c(-c4nc(N)cc(C)c4C(F)(F)F)c(Cl)cc23)C(C)C1 (stereo not drawn) + CCn1c(-c2cccnc2C(C)OC)c2c3cc(ccc31)N1CCOC(CC(NC(=O)C(C(C)C)N(C)C(=O)C3(F)CCN(C(=O)C#CC(C)(C)N(C)C)CC3)C(=O)N3CCCC(N3)C(=O)OCC(C)(C)C2)C1,IC50,"curve of first compound, second compound 0.000949 µM",> 1 µM
same,IC50,"curve of first compound, second compound 0.003 µM",> 1 µM
same,IC50,"curve of first compound, second compound 0.00949 µM",> 1 µM
same,IC50,"curve of first compound, second compound 0.03 µM",> 1 µM
same,IC50,"curve of first compound, second compound 0.0949 µM",> 1 µM
same,IC50,"curve of first compound, second compound 0.3 µM",> 1 µM
same,"viability, T/C","second compound 0.000949 µM, first compound 0.00316 µM",103%
same,"viability, T/C","second compound 0.000949 µM, first compound 0.01 µM",101%
same,"viability, T/C","second compound 0.000949 µM, first compound 0.0316 µM",69.5%
same,"viability, T/C","second compound 0.000949 µM, first compound 0.1 µM",88.2%
same,"viability, T/C","second compound 0.000949 µM, first compound 0.316 µM",95.6%
same,"viability, T/C","second compound 0.000949 µM, first compound 1 µM",71.1%
same,"viability, T/C","second compound 0.003 µM, first compound 0.00316 µM",88.7%
same,"viability, T/C","second compound 0.003 µM, first compound 0.01 µM",87.3%
same,"viability, T/C","second compound 0.003 µM, first compound 0.0316 µM",76.8%
same,"viability, T/C","second compound 0.003 µM, first compound 0.1 µM",92.5%
same,"viability, T/C","second compound 0.003 µM, first compound 0.316 µM",84.9%
same,"viability, T/C","second compound 0.003 µM, first compound 1 µM",72.9%
same,"viability, T/C","second compound 0.00949 µM, first compound 0.00316 µM",90.4%
same,"viability, T/C","second compound 0.00949 µM, first compound 0.01 µM",87.6%
same,"viability, T/C","second compound 0.00949 µM, first compound 0.0316 µM",85.3%
same,"viability, T/C","second compound 0.00949 µM, first compound 0.1 µM",89.8%
same,"viability, T/C","second compound 0.00949 µM, first compound 0.316 µM",91%
same,"viability, T/C","second compound 0.00949 µM, first compound 1 µM",74.7%
same,"viability, T/C","second compound 0.03 µM, first compound 0.00316 µM",91.3%
same,"viability, T/C","second compound 0.03 µM, first compound 0.01 µM",92%
same,"viability, T/C","second compound 0.03 µM, first compound 0.0316 µM",87.7%
same,"viability, T/C","second compound 0.03 µM, first compound 0.1 µM",94.9%
same,"viability, T/C","second compound 0.03 µM, first compound 0.316 µM",79.1%
same,"viability, T/C","second compound 0.03 µM, first compound 1 µM",84.3%
same,"viability, T/C","second compound 0.0949 µM, first compound 0.00316 µM",86.5%
same,"viability, T/C","second compound 0.0949 µM, first compound 0.01 µM",91.2%
same,"viability, T/C","second compound 0.0949 µM, first compound 0.0316 µM",83.3%
same,"viability, T/C","second compound 0.0949 µM, first compound 0.1 µM",92.7%
same,"viability, T/C","second compound 0.0949 µM, first compound 0.316 µM",71.8%
same,"viability, T/C","second compound 0.0949 µM, first compound 1 µM",87.6%
same,"viability, T/C","second compound 0.3 µM, first compound 0.00316 µM",95.4%
same,"viability, T/C","second compound 0.3 µM, first compound 0.01 µM",75.1%
same,"viability, T/C","second compound 0.3 µM, first compound 0.0316 µM",73%
same,"viability, T/C","second compound 0.3 µM, first compound 0.1 µM",70.2%
same,"viability, T/C","second compound 0.3 µM, first compound 0.316 µM",74.6%
same,"viability, T/C","second compound 0.3 µM, first compound 1 µM",79.4%
Cc1nc(N2CCC3(CC2)COC(C)C3N)c(CO)nc1Sc1ccnc(N)c1Cl (stereo not drawn),"viability, T/C",compound 0.0316 µM,108% [middle of 4 runs]
same,"viability, T/C",compound 0.1 µM,106% (3×) and 107%
same,"viability, T/C",compound 0.316 µM,102% [middle of 4 runs]
same,IC50,curve of compound,> 10 µM
CC(=O)OC12COC1CC(O)C1(C)C(=O)C(O)C3=C(C)C(OC(=O)C(O)C(NC(=O)OC(C)(C)C)c4ccccc4)CC(O)(C(OC(=O)c4ccccc4)C21)C3(C)C (stereo not drawn) + C#Cc1c(F)ccc2cc(O)cc(-c3ncc4c(N5CC6CCC(C5)N6)nc(OCC56CCCN5CC(F)C6)nc4c3F)c12,IC50,"curve of first compound, second compound 0.0316 µM",< 0.0316 µM
same,IC50,"curve of first compound, second compound 0.1 µM",< 0.0316 µM
same,IC50,"curve of first compound, second compound 0.316 µM",< 0.0316 µM
same,IC50,"curve of first compound, second compound 1 µM",< 0.0316 µM
same,IC50,"curve of first compound, second compound 3.16 µM",< 0.0316 µM
same,IC50,"curve of first compound, second compound 10 µM",< 0.0316 µM
same,"viability, T/C","second compound 0.0316 µM, first compound 0.0316 µM",11.7%
same,"viability, T/C","second compound 0.0316 µM, first compound 0.1 µM",13.2%
same,"viability, T/C","second compound 0.0316 µM, first compound 0.316 µM",14.1%
same,"viability, T/C","second compound 0.0316 µM, first compound 1 µM",19.5%
same,"viability, T/C","second compound 0.0316 µM, first compound 3.16 µM",19.5%
same,"viability, T/C","second compound 0.0316 µM, first compound 10 µM",26.5%
same,"viability, T/C","second compound 0.1 µM, first compound 0.0316 µM",14.5%
same,"viability, T/C","second compound 0.1 µM, first compound 0.1 µM",13.9%
same,"viability, T/C","second compound 0.1 µM, first compound 0.316 µM",17.6%
same,"viability, T/C","second compound 0.1 µM, first compound 1 µM",17.7%
same,"viability, T/C","second compound 0.1 µM, first compound 3.16 µM",18.7%
same,"viability, T/C","second compound 0.1 µM, first compound 10 µM",27.1%
same,"viability, T/C","second compound 0.316 µM, first compound 0.0316 µM",12%
same,"viability, T/C","second compound 0.316 µM, first compound 0.1 µM",12.8%
same,"viability, T/C","second compound 0.316 µM, first compound 0.316 µM",16.6%
same,"viability, T/C","second compound 0.316 µM, first compound 1 µM",13.6%
same,"viability, T/C","second compound 0.316 µM, first compound 3.16 µM",18.4%
same,"viability, T/C","second compound 0.316 µM, first compound 10 µM",23.5%
same,"viability, T/C","second compound 1 µM, first compound 0.0316 µM",14.7%
same,"viability, T/C","second compound 1 µM, first compound 0.1 µM",10.3%
same,"viability, T/C","second compound 1 µM, first compound 0.316 µM",13.1%
same,"viability, T/C","second compound 1 µM, first compound 1 µM",11.6%
same,"viability, T/C","second compound 1 µM, first compound 3.16 µM",17.1%
same,"viability, T/C","second compound 1 µM, first compound 10 µM",15.2%
same,"viability, T/C","second compound 3.16 µM, first compound 0.0316 µM",9.36%
same,"viability, T/C","second compound 3.16 µM, first compound 0.1 µM",13.4%
same,"viability, T/C","second compound 3.16 µM, first compound 0.316 µM",13.2%
same,"viability, T/C","second compound 3.16 µM, first compound 1 µM",14%
same,"viability, T/C","second compound 3.16 µM, first compound 3.16 µM",17.8%
same,"viability, T/C","second compound 3.16 µM, first compound 10 µM",17.2%
same,"viability, T/C","second compound 10 µM, first compound 0.0316 µM",13.1%
same,"viability, T/C","second compound 10 µM, first compound 0.1 µM",12%
same,"viability, T/C","second compound 10 µM, first compound 0.316 µM",13.8%
same,"viability, T/C","second compound 10 µM, first compound 1 µM",13.7%
same,"viability, T/C","second compound 10 µM, first compound 3.16 µM",14.8%
same,"viability, T/C","second compound 10 µM, first compound 10 µM",21.3%
